Among the data in PMC4416304, “Nickel quercetinase, a “promiscuous” metalloenzyme: metal incorporation and metal ligand substitution studies” (BMC Biochemistry, 2015) are Kd values, retold here.

Changes are numbered by the printed parent chain.

Holding throughout (assay): intrinsic protein fluorescence titration
Holding throughout (assay type): binding

Assay [1] has as its target T1, QueD (Ni-QueD; Streptomyces quercetinase) (Streptomyces sp. FLA, UniProt A2VA43, E76D).
T1 construct: C-terminal StrepII tag kept (pET23a-queD-Strep), E. coli BL21(DE3) pLysS grown with Ni2+; monocupin, native enzyme a dimer
T1 sequence (A2VA43 1-186 E76D): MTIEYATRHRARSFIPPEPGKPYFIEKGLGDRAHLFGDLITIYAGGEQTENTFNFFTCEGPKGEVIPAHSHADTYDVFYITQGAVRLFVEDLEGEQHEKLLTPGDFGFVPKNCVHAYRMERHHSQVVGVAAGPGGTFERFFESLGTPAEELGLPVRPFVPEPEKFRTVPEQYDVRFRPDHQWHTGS
From the text: (§1) intrinsic protein fluorescence titration on QueD (Ni-QueD; Streptomyces quercetinase)

In assay [2] the target is T2, QueD (Ni-QueD; Streptomyces quercetinase) (Streptomyces sp. FLA, UniProt A2VA43, E76H).
T2 construct: C-terminal StrepII tag kept (pET23a-queD-Strep), E. coli BL21(DE3) pLysS grown with Ni2+; monocupin, native enzyme a dimer
T2 sequence (A2VA43 1-186 E76H): T1 sequence (A2VA43 1-186 E76D) with D76H
Source text: as §1

Assay [3] has as its target T3, QueD (Ni-QueD; Streptomyces quercetinase) (Streptomyces sp. FLA, UniProt A2VA43, H69A).
T3 construct: C-terminal StrepII tag kept (pET23a-queD-Strep), E. coli BL21(DE3) pLysS grown with Ni2+; monocupin, native enzyme a dimer
T3 sequence (A2VA43 1-186 H69A): T1 sequence (A2VA43 1-186 E76D) with H69A, D76E
Source text: as §1

Assay [4] concerns the target T4, QueD (Ni-QueD; Streptomyces quercetinase) (Streptomyces sp. FLA, UniProt A2VA43, H71A).
T4 construct: C-terminal StrepII tag kept (pET23a-queD-Strep), E. coli BL21(DE3) pLysS grown with Ni2+; monocupin, native enzyme a dimer
T4 sequence (A2VA43 1-186 H71A): T1 sequence (A2VA43 1-186 E76D) with H71A, D76E
Source text: as §1

Assay [5] deals with T5, QueD (Ni-QueD; Streptomyces quercetinase) (Streptomyces sp. FLA, UniProt A2VA43, H115A).
T5 construct: C-terminal StrepII tag kept (pET23a-queD-Strep), E. coli BL21(DE3) pLysS grown with Ni2+; monocupin, native enzyme a dimer
T5 sequence (A2VA43 1-186 H115A): T1 sequence (A2VA43 1-186 E76D) with D76E, H115A
Source text: as §1

The target of assay [6] is T6, QueD (Ni-QueD; Streptomyces quercetinase) (Streptomyces sp. FLA, UniProt A2VA43).
T6 construct: C-terminal StrepII tag kept (pET23a-queD-Strep), E. coli BL21(DE3) pLysS grown with Ni2+; monocupin, native enzyme a dimer
T6 sequence (A2VA43 1-186): T1 sequence (A2VA43 1-186 E76D) with D76E
The text has this: intrinsic protein fluorescence titration on QueD (Ni-QueD; Streptomyces quercetinase) | The K D value of the complex of Ni-QueD with quercetin

Consider `O=c1c(O)c(-c2ccc(O)c(O)c2)oc2cc(O)cc(O)c12` [quercetin], for which the dissociation constant (Kd) in assay [1] came to 4 µM; in assay [2] it was 1300 nM; in assay [3], 3.1 µM; in assay [4] it was 10.4 µM; in assay [5] it was 2600 nM; in assay [6] it was 10.1 ± 2.9 µM.
